{
  "source": "PubChem BioAssay (NCI)",
  "test_in_all_cases": "inhibition of tumour cell growth, NCI panel, 48 h",
  "key": {"[1]": {"test_system": "RPMI-8226 leukemia"}, "[2]": {"test_system": "NCI-H522 lung"}, "[3]": {"test_system": "NCI-H23 lung"}, "[4]": {"test_system": "OVCAR-3 ovarian"}, "[5]": {"test_system": "HT29 colon"}, "[6]": {"test_system": "CAKI-1 renal"}, "[7]": {"test_system": "PC-3 prostate"}, "[8]": {"test_system": "HCT-15 colon"}, "[9]": {"test_system": "UO-31 renal"}, "[10]": {"test_system": "NCI/ADR-RES ovarian"}, "[11]": {"test_system": "OVCAR-8 ovarian"}, "[12]": {"test_system": "M14 melanoma"}, "[13]": {"test_system": "T-47D breast"}, "[14]": {"test_system": "K-562 leukemia"}, "[15]": {"test_system": "SF-539 CNS"}, "[16]": {"test_system": "SK-MEL-2 melanoma"}, "[17]": {"test_system": "IGROV1 ovarian"}, "[18]": {"test_system": "SK-MEL-28 melanoma"}, "[19]": {"test_system": "MOLT-4 leukemia"}, "[20]": {"test_system": "HCC-2998 colon"}, "[21]": {"test_system": "MDA-MB-231 breast"}, "[22]": {"test_system": "DU-145 prostate"}, "[23]": {"test_system": "KM12 colon"}, "[24]": {"test_system": "HL-60(TB) leukemia"}, "[25]": {"test_system": "SK-MEL-5 melanoma"}, "[26]": {"test_system": "UACC-257 melanoma"}, "[27]": {"test_system": "MDA-MB-435"}, "[28]": {"test_system": "HCT-116 colon"}},
  "note": "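96-well plates; 48 h exposure; 5 concentrations. Endpoints by linear interpolation between flanking doses. Not reached: highest tested concentration assigned. Here, GI50 denotes the concentration required for 50% inhibition of growth. Definition used: TGI = concentration required for complete inhibition of growth.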",
  "data": [
    {"smiles": "Cc1ccccc1NC(=O)c1cc2ccccc2cc1O", "values": [
      {"measurement": "GI50", "setting": "[1]", "value": 2.83, "unit": "µM"},
      {"measurement": "TGI", "setting": "[1]", "value": 8.9, "unit": "µM"},
      {"measurement": "GI50", "setting": "[2]", "value": 2.62, "unit": "µM"},
      {"measurement": "TGI", "setting": "[2]", "value": 9.39, "unit": "µM"},
      {"measurement": "GI50", "setting": "[3]", "value": 2.36, "unit": "µM"},
      {"measurement": "TGI", "setting": "[3]", "value": 6.6, "unit": "µM"},
      {"measurement": "GI50", "setting": "[4]", "value": 2.56, "unit": "µM"},
      {"measurement": "TGI", "setting": "[4]", "value": 7.77, "unit": "µM"},
      {"measurement": "GI50", "setting": "[5]", "value": 7.54, "unit": "µM"},
      {"measurement": "TGI", "setting": "[5]", "value": "> 100", "unit": "µM"},
      {"measurement": "GI50", "setting": "[6]", "value": 2.01, "unit": "µM"},
      {"measurement": "TGI", "setting": "[6]", "value": 5.87, "unit": "µM"},
      {"measurement": "GI50", "setting": "[7]", "value": 2.7, "unit": "µM"},
      {"measurement": "TGI", "setting": "[7]", "value": 8.81, "unit": "µM"},
      {"measurement": "GI50", "setting": "[8]", "value": 3.84, "unit": "µM"},
      {"measurement": "TGI", "setting": "[8]", "value": "> 100", "unit": "µM"},
      {"measurement": "GI50", "setting": "[9]", "value": 3.54, "unit": "µM"},
      {"measurement": "TGI", "setting": "[9]", "value": "> 100", "unit": "µM"},
      {"measurement": "GI50", "setting": "[10]", "value": 2.85, "unit": "µM"},
      {"measurement": "TGI", "setting": "[10]", "value": 8.79, "unit": "µM"},
      {"measurement": "GI50", "setting": "[11]", "value": 3.46, "unit": "µM"},
      {"measurement": "TGI", "setting": "[11]", "value": 59.3, "unit": "µM"},
      {"measurement": "GI50", "setting": "[12]", "value": 4.08, "unit": "µM"},
      {"measurement": "TGI", "setting": "[12]", "value": "> 100", "unit": "µM"},
      {"measurement": "GI50", "setting": "[13]", "value": 3.51, "unit": "µM"},
      {"measurement": "TGI", "setting": "[13]", "value": "> 100", "unit": "µM"},
      {"measurement": "GI50", "setting": "[14]", "value": 5.23, "unit": "µM"},
      {"measurement": "TGI", "setting": "[14]", "value": "> 100", "unit": "µM"},
      {"measurement": "GI50", "setting": "[15]", "value": 3.55, "unit": "µM"},
      {"measurement": "TGI", "setting": "[15]", "value": 24.1, "unit": "µM"},
      {"measurement": "GI50", "setting": "[16]", "value": 3.33, "unit": "µM"},
      {"measurement": "TGI", "setting": "[16]", "value": 8.05, "unit": "µM"},
      {"measurement": "GI50", "setting": "[17]", "value": 2.65, "unit": "µM"},
      {"measurement": "TGI", "setting": "[17]", "value": 30.3, "unit": "µM"},
      {"measurement": "GI50", "setting": "[18]", "value": 5.09, "unit": "µM"},
      {"measurement": "TGI", "setting": "[18]", "value": "> 100", "unit": "µM"},
      {"measurement": "GI50", "setting": "[19]", "value": 3.98, "unit": "µM"},
      {"measurement": "TGI", "setting": "[19]", "value": "> 100", "unit": "µM"},
      {"measurement": "GI50", "setting": "[20]", "value": 4.4, "unit": "µM"},
      {"measurement": "TGI", "setting": "[20]", "value": 26.2, "unit": "µM"},
      {"measurement": "GI50", "setting": "[21]", "value": 3.17, "unit": "µM"},
      {"measurement": "TGI", "setting": "[21]", "value": 15.2, "unit": "µM"},
      {"measurement": "GI50", "setting": "[22]", "value": 4.03, "unit": "µM"},
      {"measurement": "TGI", "setting": "[22]", "value": "> 100", "unit": "µM"},
      {"measurement": "GI50", "setting": "[23]", "value": 3.36, "unit": "µM"},
      {"measurement": "TGI", "setting": "[23]", "value": "> 100", "unit": "µM"},
      {"measurement": "GI50", "setting": "[24]", "value": 2.5, "unit": "µM"},
      {"measurement": "TGI", "setting": "[24]", "value": 7.34, "unit": "µM"},
      {"measurement": "GI50", "setting": "[25]", "value": 2.38, "unit": "µM"},
      {"measurement": "TGI", "setting": "[25]", "value": 5.58, "unit": "µM"},
      {"measurement": "GI50", "setting": "[26]", "value": 3.52, "unit": "µM"},
      {"measurement": "TGI", "setting": "[26]", "value": 16.2, "unit": "µM"},
      {"measurement": "GI50", "setting": "[27]", "value": 3.04, "unit": "µM"},
      {"measurement": "TGI", "setting": "[27]", "value": "> 100", "unit": "µM"},
      {"measurement": "GI50", "setting": "[28]", "value": 3.45, "unit": "µM"},
      {"measurement": "TGI", "setting": "[28]", "value": 15.1, "unit": "µM"}
    ]}
  ]
}
